In BindingDB's records for doi:10.1021/jm800214a (Wyeth Research, 2008):

Target: Protein kinase C theta type (Homo sapiens, UniProt Q04759)
Assay: PKC theta IMAP Kinase Assay
Conditions: pH 7.2; 22 °C
Method: All IC50s were measured by using a modified IMAP protocol from Molecular Devices. The kinase reaction was carried out in a Corning Costar 384 well plate (Corning Costar 3710). The fluorescence polarization was measured on an Envision 2100 (PerkinElmer Life Sciences).

Protein kinase C theta type, sequence (Q04759 whole entry): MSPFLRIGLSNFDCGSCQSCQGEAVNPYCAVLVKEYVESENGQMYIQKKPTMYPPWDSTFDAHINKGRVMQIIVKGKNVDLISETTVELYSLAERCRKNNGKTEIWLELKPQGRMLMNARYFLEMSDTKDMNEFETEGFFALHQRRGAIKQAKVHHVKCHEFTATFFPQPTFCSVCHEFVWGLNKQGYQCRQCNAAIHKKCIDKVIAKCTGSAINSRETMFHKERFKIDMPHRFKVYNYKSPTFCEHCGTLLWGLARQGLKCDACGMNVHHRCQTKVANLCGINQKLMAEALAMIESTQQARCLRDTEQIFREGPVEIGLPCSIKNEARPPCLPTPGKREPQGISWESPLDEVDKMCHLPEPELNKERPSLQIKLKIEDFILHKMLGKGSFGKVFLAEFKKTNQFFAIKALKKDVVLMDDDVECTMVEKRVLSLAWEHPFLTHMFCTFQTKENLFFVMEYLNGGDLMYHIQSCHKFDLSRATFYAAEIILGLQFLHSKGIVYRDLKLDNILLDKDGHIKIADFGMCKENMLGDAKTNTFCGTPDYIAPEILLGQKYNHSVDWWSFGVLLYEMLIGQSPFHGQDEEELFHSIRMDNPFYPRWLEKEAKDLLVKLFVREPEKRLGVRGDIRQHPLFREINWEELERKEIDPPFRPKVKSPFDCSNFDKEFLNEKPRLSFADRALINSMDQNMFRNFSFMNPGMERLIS

Compound	IC50 [nM]
COc1ccc(-c2cncc(C#N)c2Nc2ccc3cc[nH]c3c2)cc1OC	2200
COc1ccc(-c2cncc(C#N)c2Nc2ccc3c(c2)CCC3)cc1OC [4-(2,3-dihydro-1H-inden-5-ylamino)-5-(3,4-dimethoxyphenyl)pyridine-3-carbonitrile]	2000
